Experimental data published in patent publication US20060287320A1, “Preparation of thioarabinofuranosyl compounds and use thereof” (Southern Research Institute, priority 1998, published 2006).

What was measured:
DLD-1 Colon = test: In vitro IC50, 72 hour exposure, Natural Red assay; assay type: cell-based; conditions: Homo sapiens, read-out: IC50 Molar Values
Procedure: (§1) EXAMPLE 3 The following in vitro tests were carried out.
(§2) The above tests were carried out with a 72 hour exposure to the compound using Natural Red assay for all cell lines except SK-MEL 28 which was done with SRB assay.

PC-3 Prostate = test: In vitro IC50, 72 hour exposure, Natural Red assay; assay type: cell-based; conditions: read-out: IC50 Molar Values
Procedure: as §1, §2

ZR-75-1 Mammary = test: In vitro IC50, 72 hour exposure, Natural Red assay; assay type: cell-based; conditions: Homo sapiens, read-out: IC50 Molar Values
Procedure: as §1, §2

LOX IMV1 Melanoma = test: In vitro IC50, 72 hour exposure, Natural Red assay; assay type: cell-based; conditions: read-out: IC50 Molar Values
Procedure: as §1, §2

NC1-H23 Lung = test: In vitro IC50, 72 hour exposure, Natural Red assay; assay type: cell-based; conditions: read-out: IC50 Molar Values
Procedure: as §1, §2

SNB-7 (CNS) = test: In vitro IC50, 72 hour exposure, Natural Red assay; assay type: cell-based; conditions: Homo sapiens, read-out: IC50 Molar Values
Procedure: as §1, §2

CAK1-1 Renal = test: In vitro IC50, 72 hour exposure, Natural Red assay; assay type: cell-based; conditions: read-out: IC50 Molar Values
Procedure: as §1, §2

CEM cells (wild-type) [1] = test: Metabolism of dCyd and analogs in wild-type CEM cells; assay type: cell-based; conditions: WT CEM cells; 100 nM; incubation time 1 hour
Procedure: (§3) The radioactivity in the 5′-triphosphate peak and the incorporation of radioactivity in the acid-insoluble fraction (DNA) was determined.

[2] = tested on: DNA synthesis in CEM cells; test: Effect on DNA synthesis ([3H]dThd incorporation) in CEM cells; assay type: cell-based; conditions: Homo sapiens, CCRF-CEM, 750 nM, average of two experiments, read-out: DNA synthesis, Percent of control
Procedure: (§4) Radiolabeled precursors of DNA [^3H]dThd, RNA ([^3H]Urd), or protein ([^3H]leucine) were added to each treatment 30 minutes after the addition of each compound. Samples were taken 1, 2, 3 and 4 hours after the addition of radiolabeled precursors, and the incorporation of radioactivity into RNA, DNA, or protein were determined as described (Parker et al, Biochem. Pharmacol. 55: 1673-1681, 1998). Each number represents the average of two experiments.

CEM cells (wild-type) [3] = test: Inhibition of CEM cell growth, wild-type; conditions: Homo sapiens, CCRF-CEM, read-out: IC50 (nM) Wild-type
Procedure: (§7) CEM cells were incubated with various concentrations of each compound and the effect on. cell numbers was determined using a Coulter Counter. The IC50 was determined from a plot of the percent of control growth versus drug concentration. The data presented are the mean and standard deviation from 3 separate experiments.

SC Colon 36 Tumor = test: Response of SC Colon 36 Tumor to Treatment; assay type: in vivo; conditions: 8 Mg/Kg IP, Q 4H × 3 day 9-17
Procedure: (§5) The following in vivo tests were carried out to illustrate the effectiveness of the compounds of the present invention.

[4] = tested on: protein synthesis in CEM cells; test: Effect on protein synthesis ([3H]leucine incorporation) in CEM cells; assay type: cell-based; conditions: Homo sapiens, CCRF-CEM, 750 nM, average of two experiments, read-out: protein synthesis, Percent of control
Procedure: as §4

[5] = Phosphorylation in cell-free CEM extracts, araC-resistant; assay type: biochemical
Procedure: (§6) The number in parentheses is the number of experiments performed. […] At various times after the initiation of the experiment, an aliquot of each reaction volume was removed and placed on DE-81 filters. The filters were washed with 1 mM ammonium formate and ethanol, and the amount of radioactivity on each filter was determined. […] This assay was verified by HPLC.

araC-resistant CEM cells [6] = test: Inhibition of CEM cell growth, araC-resistant
Procedure: as §7

[7] = tested on: RNA synthesis in CEM cells; test: Effect on RNA synthesis ([3H]Urd incorporation) in CEM cells; assay type: cell-based; conditions: 750 nM, average of two experiments
Procedure: as §4

[8] = target: T1, dCyd Kinase Activity Isolated from Molt-4 Cells (Homo sapiens, UniProt P27707); test: Substrate characteristics with dCyd kinase activity isolated from Molt-4 cells; assay type: biochemical; conditions: dCyd kinase activity from Molt-4 cells
T1 construct: endogenous in cells; host or cells: Molt-4 cells (enzyme purified from the cells)
T1 sequence (P27707 whole entry): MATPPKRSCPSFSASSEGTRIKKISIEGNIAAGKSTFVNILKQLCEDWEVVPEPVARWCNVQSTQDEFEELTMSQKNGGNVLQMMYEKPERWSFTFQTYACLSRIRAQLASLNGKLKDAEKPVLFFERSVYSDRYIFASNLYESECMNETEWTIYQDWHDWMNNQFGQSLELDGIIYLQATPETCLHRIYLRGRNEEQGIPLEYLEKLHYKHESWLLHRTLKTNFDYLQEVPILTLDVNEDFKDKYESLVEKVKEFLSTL
Procedure: Each assay was done in duplicate and the kinetic constants were determined from linear double-reciprocal plots of 1/velocity versus 1/concentration of the substrate. The best line was determined by linear regression from at least 5 datum points, and the Km and Vmax were determined from the x and y intercepts.

araC-resistant CEM cells [9] = test: Metabolism of dCyd and analogs in araC-resistant CEM cells; assay type: cell-based; conditions: 100 nM, incubation time 1 hour
Procedure: as §3

SK-MEL 28 Melanoma = test: In vitro IC50, 72 hour exposure, SRB assay; assay type: cell-based; conditions: Homo sapiens, read-out: IC50 Molar Values
Procedure: as §1, §2

[10] = Phosphorylation in cell-free CEM extracts, wild-type; assay type: biochemical; conditions: wild-type CEM cell extract; 1 μm substrate
Procedure: as §6

CEM cells [11] = test: Complete metabolism of dCyd, T-dCyd, araC and T-araC in CEM cells; assay type: cell-based; conditions: 100 nM, incubation 24 hours
Procedure: The complete metabolism of each compound was determined: The medium was analyzed for the original compound, its deaminated form using reverse phase HPLC, and H20; the acid-soluble extract was analyzed by SAX HPLC for phosphorylated metabolites; and the incorporation of radioactivity into acid-precipitable material (DNA) was determined.

SC CAKI-1 Renal Tumor = test: Response of SC CAKI-1 Renal Tumor to Treatment; assay type: in vivo; conditions: Q 4H × 3 day 7-15
Procedure: as §5

CEM cells [12] = test: Effect of F-dUrd on metabolism (deamination) in CEM cells; assay type: cell-based; conditions: 100 nM, incubation time 24 hours
Procedure: The complete metabolism of each compound was determined as described in the legend to Table 12, and the percent of deaminated metabolites for each compound was determined.

SC HCT-116 Colon Tumor = test: Response of SC HCT-116 Colon Tumor to Treatment; assay type: in vivo; conditions: Q 4H × 3 day 6-14
Procedure: as §5

Nc1ccn([C@@H]2S[C@H](CO)[C@@H](O)[C@@H]2O)c(=O)n1 [T-araC, 1-(4-Thio-β-D-arabinofuranosyl) cytosine]
IC50 (DLD-1 Colon): 7 µM
IC50 (PC-3 Prostate): 8 µM
IC50 (ZR-75-1 Mammary): 3 µM
IC50 (LOX IMV1 Melanoma): 7 µM
IC50 (NC1-H23 Lung): 5 µM
IC50 (SNB-7 (CNS)): 1 µM
IC50 (CAK1-1 Renal): 3 µM
DNA (CEM cells (wild-type) [1]): 0.0056 pmoles/10^6 cells
Total (CEM cells (wild-type) [1]): 0.2076 pmoles/10^6 cells
activity at 0.75 µM [2]: 16%
IC50 (CEM cells (wild-type) [3]): 24 ± 9 nM
Days Delay (T − C) (SC Colon 36 Tumor): >38.5 days
Days to 2 Doubling (SC Colon 36 Tumor): >49.0 days
Non-Specific Deaths/Total (SC Colon 36 Tumor): 0/5
Tumor Free Surv/Total (SC Colon 36 Tumor): 4/5
Tumor Regression Number of Complete (SC Colon 36 Tumor): 4
Tumor Regression Number of Partial (SC Colon 36 Tumor): 0
activity at 0.75 µM [4]: 72%
Phosphorylation, araC-resistant CEM cells ([5]; araC-resistant CEM cell extract, 1 μm substrate): 0.011 pmoles/mg protein/minute
Percent of wild-type ([5]; phosphorylation in araC-resistant vs wild-type CEM extract): 1.3% of wild-type
IC50 (araC-resistant CEM cells [6]; Homo sapiens, CCRF-CEM, read-out: IC50 (nM) araC-resistant): 125 ± 84 nM
Resistant/WT (araC-resistant CEM cells [6]; ratio of IC50 araC-resistant / wild-type CEM cells): 5
RNA synthesis, Percent of control [7]: 87% of control
Relative Vmax [8]: 0.46
DNA (araC-resistant CEM cells [9]): 0.0025 pmoles/10^6 cells
DNA (percent of WT) (araC-resistant CEM cells [9]): 45% of WT
Total (araC-resistant CEM cells [9]): 0.0535 pmoles/10^6 cells
Total (percent of WT) (araC-resistant CEM cells [9]): 26% of WT
IC50 (SK-MEL 28 Melanoma): 7 µM
Phosphorylation, Wild-type [10]: 0.83 pmoles/mg protein/minute
DNA (percent of total) (CEM cells [11]): 0.3% of total
Original Compound (percent of total) (CEM cells [11]): 96% of total
Days Delay (T − C) (SC CAKI-1 Renal Tumor; 8 Mg/Kg IP): 41.2 days
Days to 3 Doubling (SC CAKI-1 Renal Tumor; 8 Mg/Kg IP): 50.7 days
Non-Specific Deaths/Total (SC CAKI-1 Renal Tumor; 8 Mg/Kg IP): 0/6
Tumor Free Surv/Total (SC CAKI-1 Renal Tumor; 8 Mg/Kg IP): 0/6
Tumor Regression Duration Med (SC CAKI-1 Renal Tumor; 8 Mg/Kg IP): 12.7 days
Tumor Regression Duration Range (SC CAKI-1 Renal Tumor; 8 Mg/Kg IP): 9 to 18 days
Tumor Regression Number of Complete (SC CAKI-1 Renal Tumor; 8 Mg/Kg IP): 4
Tumor Regression Number of Partial (SC CAKI-1 Renal Tumor; 8 Mg/Kg IP): 1
Days Delay (T − C) (SC CAKI-1 Renal Tumor; 16 Mg/Kg IP): 50.3 days
Days to 3 Doubling (SC CAKI-1 Renal Tumor; 16 Mg/Kg IP): 59.8 days
Non-Specific Deaths/Total (SC CAKI-1 Renal Tumor; 16 Mg/Kg IP): 1/6
Tumor Free Surv/Total (SC CAKI-1 Renal Tumor; 16 Mg/Kg IP): 0/6
Tumor Regression Duration Med (SC CAKI-1 Renal Tumor; 16 Mg/Kg IP): 26.9 days
Tumor Regression Duration Range (SC CAKI-1 Renal Tumor; 16 Mg/Kg IP): 16 to 48 days
Tumor Regression Number of Complete (SC CAKI-1 Renal Tumor; 16 Mg/Kg IP): 5
Tumor Regression Number of Partial (SC CAKI-1 Renal Tumor; 16 Mg/Kg IP): 0
Percent Deamination (CEM cells [12]; F-dUrd 0 μM): 0%
Percent Deamination (CEM cells [12]; F-dUrd 10 μM): 0%
Days Delay (T − C) (SC HCT-116 Colon Tumor; 13.3 Mg/Kg IP): >43.1 days
Days to 2 Doubling (SC HCT-116 Colon Tumor; 13.3 Mg/Kg IP): >52.0 days
Non-Specific Deaths/Total (SC HCT-116 Colon Tumor; 13.3 Mg/Kg IP): 0/6
Tumor Free Surv/Total (SC HCT-116 Colon Tumor; 13.3 Mg/Kg IP): 5/6
Tumor Regression Duration Med (SC HCT-116 Colon Tumor; 13.3 Mg/Kg IP): 23.6 days
Tumor Regression Duration Range (Days) (SC HCT-116 Colon Tumor; 13.3 Mg/Kg IP): 24-24 Days
Tumor Regression Number of Complete (SC HCT-116 Colon Tumor; 13.3 Mg/Kg IP): 6
Tumor Regression Number of Partial (SC HCT-116 Colon Tumor; 13.3 Mg/Kg IP): 0
Days Delay (T − C) (SC HCT-116 Colon Tumor; 20 Mg/Kg IP): >43.1 days
Days to 2 Doubling (SC HCT-116 Colon Tumor; 20 Mg/Kg IP): >52.0 days
Non-Specific Deaths/Total (SC HCT-116 Colon Tumor; 20 Mg/Kg IP): 0/6
Tumor Free Surv/Total (SC HCT-116 Colon Tumor; 20 Mg/Kg IP): 6/6
Tumor Regression Number of Complete (SC HCT-116 Colon Tumor; 20 Mg/Kg IP): 6
Tumor Regression Number of Partial (SC HCT-116 Colon Tumor; 20 Mg/Kg IP): 0
